Data set [1] can be described thus: Optical properties (absorption, emission, extinction coefficient) of BDP635 and derivative SBDPiRs. The format is physicochemical.
A short description of data set [2]: Singlet oxygen generation, indirect method of DPBF photooxidation. Conditions: DPBF photooxidation monitored at 410 nm. As for the experimental part:
(§1) Singlet oxygen generation and photostability: A singlet oxygen generation experiment on compound 53 using the indirect method of DPBF photooxidation was performed. There were strong similarities of the behavior of 53 towards DPBF with SBDPiR715. […] The photooxidation of DPBF was monitored by UV-vis spectrophotometer at 410 nm. […] Additionally, less than 30% of 53 photobleached under the harsh light illumination condition over a period of an hour, which is a strong evidence for photostability (FIG. 21).

Data set [3] is described as follows: Photostability (photobleaching under light illumination). The format is physicochemical. As for the experimental part:
as §1

The next data set relates to nude mice. Kind of data set: In vivo optical imaging with Compound 53. More on the design: species or system mouse. The note with it: for in vivo fluorescence image: 2.5 μmol/kg i.p. As for the experimental part:
Optical imaging was performed with an IVIS Spectrum small-animal in vivo imaging system (Caliper LS). The Living Image Software v3.0 (Caliper LS) was used to analyze images and measurements of fluorescent signals. Excitation and emission wavelengths of 720 nm and 760 nm, respectively, were used to acquire in vivo fluorescent images of Compound 53 (M.W=[…]). All images were attained using a 1-s exposure time and an f/stop of 1, with a sampling of multiple angles with animal under Isoflurane anaesthesia. Animals were injected with 2.5 μmol/kg (2 mg/kg) of 53 via i.p. administration.

Data set [4] deals with BALB/c mice bearing colon-26 cells (mouse colon carcinoma cells). Put plainly: In vivo imaging with SBDPiR790. The note with it: 2.5 μmol/kg i.p. As for the experimental part:
Female Balb/c mice were purchased from NCI (Federick, Md.). Mice were housed and handled in the College of Pharmacy animal facility, University of Oklahoma Health Sciences Center, Oklahoma City, Okla. All animal experiments were approved by IACUC, University of Oklahoma Health Sciences Center (personal approval was offered). Injection solution of SBDPiR790 was prepared by solubilizing it in DMSO (4 mM), and then it was diluted with 1% Tween 80-5% dextrose solution (PBS). The solution was filtered through a 0.2 μm sterile syringe filter before i.p. injection.
BALB/c mice bearing colon-26 cells (mouse colon carcinoma cells) were used for this study. 6-8 week old Balb/c mice were shaved and depilated with hair removal cream (Nair) at the upper back. The mice were subcutaneously inoculated with colon 26 cells at the neck region with […] in 0.1 ml PBS solution. Tumors with 4-6 mm diameter size were made in a week. The in vivo Xtreme imaging system (Carestream Health, Inc.) was used in acquiring images as mice were kept under safe anaesthesia using Isoflurane. The instrumental conditions for the imaging were as follows: fluorescence mode with excitation 760 nm and emission 830 nm; exposure time 5 sec; F/stop: 2 and pixel 2×2. Images collected were then processed using the Carestream MI imaging software to equally adjusted minima and maxima scale.
All mice received 2.5 μmol/kg of SBDPiR790 (MW=636.11 g/mol) solution in PBS (0.2 ml) via i.p. injection. Images were taken at 0 (before), 15 minutes, 3, 6, and 24 hours postinjection. […] Particularly SBDPiR790 can be a practical alternative to the sole clinically approved NIR probe, ICG. The stability, and excellent photophysical properties of SBDPiR790 and its lipophilic character make it useful for varied applications including cancer diagnosis and neurological imaging taking advantage of its ability to cross the blood-brain barrier.

13 compounds from patent US9611281B2, “BODIPY derivatives and methods of synthesis and use thereof” (The Board of Regents of the University of Oklahoma, priority 2013, dated 2017) can be followed below.

In data set [1], “2,8-Di(bromo)-11-trifluoromethyl-dithieno[2,3-b]-[3,2-g]-5,5-difluoro-5-bora-3a,4a-dithio-s-indacene [BDP635]” yielded a λabs of 635 nm and a λflu of 650 nm.
Take `COC(=O)c1ccc(C2=C3C=c4sc(-c5ccc(OC)cc5)cc4=[N+]3[B-](F)(F)n3c2cc2sc(-c4ccc(OC)cc4)cc23)cc1` [Compound 50, 2,8-Di(4-Methoxy-phenyl)-11-benzoic acid methyl ester-dithieno[2,3-b]-[3,2-g]-5,5-difluoro-5-bora-3a,4a-diaza-s-indacene]: the fluorescence result in data set [1] was “relatively low fluorescence”. In addition, in data set [1] (in CHCl3), the 0-0 absorption stood at 685 nm and the molar extinction coefficient is reported as 85 000 M^−1 cm^−1.
Consider `O=C(O)COc1ccc(-c2sc3c(c2Br)=[N+]2C(=C(C(F)(F)F)c4cc5sc(-c6ccc(OCC(=O)O)cc6)c(Br)c5n4[B-]2(F)F)C=3)cc1` [Compound 53, 3,7-Dibromo-2,8-di(4-Carboxymethoxy-phenyl)-11-trifluoromethyl-dithieno[2,3-b]-[3,2-g]-5,5-difluoro-5-bora-3a,4a-diaza-s-indacene], for which the singlet oxygen generation result in data set [2] is given as “potent singlet oxygen generator”. For the same compound, the “photostability compared with m-THPC” value in data set [3] is reported as “relatively better than the clinically approved m-THPC (Foscan)”. In addition, the fraction photobleached result in data set [3] (harsh light illumination over a period of an hour) was “less than 30%”. Further, the “in vivo fluorescence signal” value in the data set on nude mice (2.5 μmol/kg (2 mg/kg) i.p., ex 720 nm / em 760 nm) is recorded as “Bright fluorescence signals were detected”. The “in vivo fluorescence image” value in the data set with nude mice (5 and 10 minutes) was “two bright areas were observed in the mid-body”; with nude mice (3 hours and 6 hours), “most skin showed bright emission”; in the data set with nude mice (12 hours), “the intensity of skin was lower than the 3 hour and 6 hour images”.
With `F[B-]1(F)n2c(cc3sc(Oc4ccc(-c5ccccc5)cc4)cc32)C(C(F)(F)F)=C2C=c3sc(Oc4ccc(-c5ccccc5)cc4)cc3=[N+]21` [SBDPiR650, 2,8-Di(biphenyl-4-yloxy)-11-trifluoromethyl-dithieno[2,3-b]-[3,2-g]-5,5-difluoro-5-bora-3a,4a-diaza-s-indacene], in data set [1], the ε is listed as 83 000 M^−1 cm^−1, the λabs worked out at 649 nm and the λflu was determined as 660 nm.
For `COc1ccc(Oc2cc3c(s2)=CC2=C(C(F)(F)F)c4cc5sc(Oc6ccc(OC)cc6)cc5n4[B-](F)(F)[N+]=32)cc1` [SBDPiR650_OMe, 2,8-Di(4-methoxyphenoxy)-11-trifluoromethyl-dithieno[2,3-b]-[3,2-g]-5,5-difluoro-5-bora-3a,4a-diaza-s-indacene], in that order: 118 000 M^−1 cm^−1, 649 nm and 660 nm.
Turning to `F[B-]1(F)n2c(cc3sc(Sc4ccccc4)cc32)C(C(F)(F)F)=C2C=c3sc(Sc4ccccc4)cc3=[N+]21` [SBDPiR700, 2,8-Di(thiophenoxy)-11-trifluoromethyl-dithieno[2,3-b]-[3,2-g]-5,5-difluoro-5-bora-3a,4a-diaza-s-indacene], in data set [1], the ε is listed as 105 000 M^−1 cm^−1, the λabs is recorded as 694 nm and the λflu is reported as 715 nm.
For `COc1cc(-c2cc3c(s2)=CC2=C(C(F)(F)F)c4cc5sc(-c6cc(OC)c(OC)c(OC)c6)cc5n4[B-](F)(F)[N+]=32)cc(OC)c1OC` [SBDPiR730, 2,8-Di(3,4,5-trimethoxyphenyl)-11-trifluoromethyl-dithieno[2,3-b]-[3,2-g]-5,5-difluoro-5-bora-3a,4a-diaza-s-indacene] the same measures were 140 000 M^−1 cm^−1, 728 nm and 761 nm.
Regarding `COc1ccc(-c2cc3c(s2)=CC2=C(C(F)(F)F)c4cc5sc(-c6ccc(OC)cc6)cc5n4[B-](F)(F)[N+]=32)cc1` [SBDPiR731, 2,8-Di(4-methoxyphenyl)-11-trifluoromethyl-dithieno[2,3-b]-[3,2-g]-5,5-difluoro-5-bora-3a,4a-diaza-s-indacene], in data set [1], the ε is on record as 185 000 M^−1 cm^−1, the λabs is listed as 731 nm and the λflu is recorded as 755 nm.
For `F[B-]1(F)n2c(cc3sc(-c4cccs4)cc32)C(C(F)(F)F)=C2C=c3sc(-c4cccs4)cc3=[N+]21` [SBDPiR735, 2,8-Di(thiophenyl)-11-trifluoromethyl-dithieno[2,3-b]-[3,2-g]-5,5-difluoro-5-bora-3a,4a-diaza-s-indacene] the same measures were 125 000 M^−1 cm^−1, 733 nm and 763 nm.
With `Oc1ccc(-c2cc3c(s2)=CC2=C(C(F)(F)F)c4cc5sc(-c6ccc(O)cc6)cc5n4[B-](F)(F)[N+]=32)cc1` [SBDPiR740, 2,8-Di(4-hydroxyphenyl)-11-trifluoromethyl-dithieno[2,3-b]-[3,2-g]-5,5-difluoro-5-bora-3a,4a-diaza-s-indacene], in data set [1], the ε is on record as 101 000 M^−1 cm^−1, the λabs amounted to 738 nm and the λflu was determined as 763 nm.
For `F[B-]1(F)n2c(cc3sc(C=Cc4ccccc4)cc32)C(C(F)(F)F)=C2C=c3sc(C=Cc4ccccc4)cc3=[N+]21` [SBDPiR755, 2,8-Di(styryl)-11-trifluoromethyl-dithieno[2,3-b]-[3,2-g]-5,5-difluoro-5-bora-3a,4a-diaza-s-indacene] the same measures were 110 000 M^−1 cm^−1, 753 nm and 785 nm.
Consider `COc1ccc(C=Cc2cc3c(s2)=CC2=C(C(F)(F)F)c4cc5sc(C=Cc6ccc(OC)cc6)cc5n4[B-](F)(F)[N+]=32)cc1` [SBDPiR790, 2,8-Di(4-(methoxy-phenyl)vinyl)-11-trifluoromethyl-dithieno[2,3-b]-[3,2-g]-5,5-difluoro-5-bora-3a,4a-diaza-s-indacene], for which the ε in data set [1] is on record as 85 000 M^−1 cm^−1. This compound also came in with a λabs in data set [1] of 786 nm. The “in vivo fluorescence emission image” value in data set [4] (15 minutes postinjection, ex 760 nm / em 830 nm) is recorded as “most of the dye still remained in the peritoneal cavity”; in data set [4] (3 hours postinjection), “all skin area showed relatively bright emission with intense bright spots in mid-body”; in data set [4] (6 hours postinjection), “an intense emission was observed in the tumor area”; in data set [4] (24 hours postinjection), “brighter emission was observed at the tumor site than other body”.
For the compound `CN(C)c1ccc(-c2cc3c(s2)=CC2=C(C(F)(F)F)c4cc5sc(-c6ccc(N(C)C)cc6)cc5n4[B-](F)(F)[N+]=32)cc1` [SBDPiR840, 2,8-Di(4-N,N,dimethylaminophenyl)-11-trifluoromethyl-dithieno[2,3-b]-[3,2-g]-5,5-difluoro-5-bora-3a,4a-diaza-s-indacene], the λabs in data set [1] was 841 nm.
